# According to the METLIN SMRT retention time set (Domingo-Almenara et al. 2019):
# Experiment: gradient 5% acetonitrile 3 min, to 50% in 2 min, to 85% in 15 min, held 3 min, 100 µL/min
# Details: column: Zorbax Extend-C18 2.1 x 50 mm; eluents: water / acetonitrile, 0.1% formic acid
# Outline: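 In both positive and negative ionization mode, a quadrupole time-of-flight mass spectrometer coupled to HPLC analyzed pure standards run in mixtures of ~100 molecules. The Zorbax Extend-C18 column (2.1 × 50 mm, 1.8 μm) was operated at 100 μL/min with water and acetonitrile, each containing 0.1% formic acid. The dead volume was 40 μL and the dwell volume 900 μL. Retention time came from adduct peaks that were computationally picked and individually inspected by hand.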
row,Structure (SMILES),RP-LC retention time [s]
1,CCc1ccc(NC(=O)C2CCN(S(=O)(=O)c3ccc4c(c3)NC(=O)C(CC)O4)CC2)cc1 (stereo not drawn),963
2,CCCN1C(=O)c2n[nH]c(-c3ccco3)c2C1c1ccc(O)c(OC)c1 (stereo not drawn),699
3,Cc1cc2c(cc3n2CC(C)(C(=O)NC2CCCCC2)N(Cc2cccnc2)C3=O)o1 (stereo not drawn),658
4,Cc1cc2c(cc(C(=O)N3CCC(C(=O)N4CCCC4)CC3)n2Cc2c(F)cccc2Cl)o1,897
5,Cc1nc(-c2ccccc2)cc2nn(CC(=O)Nc3ccc(F)cc3Cl)c(=O)n12,967
6,COc1ccc2cc(-c3nc(-c4ccc(S(C)=O)cc4)[nH]c3-c3ccncc3)ccc2c1 (stereo not drawn),682
7,Cc1ccc(C)c(Cn2nc3ccc(S(=O)(=O)N4CCC(C)CC4)cn3c2=O)c1,1130
8,O=C(NC1CCN(Cc2ccccc2)CC1)C1CCCN(c2nccnc2Oc2ccccc2)C1 (stereo not drawn),680
9,N#CC1CC(c2ccccc2)Nc2cc(Cl)ccc2N1 (stereo not drawn),912
10,O=C(Nc1cc(F)ccc1F)Nc1c(-c2ccc(F)cc2)nc2ccccn12,706
11,CCOC(=O)CNC(=O)NC12CC3CC(CC(C3)C1)C2,802
12,CCCc1ccc(S(=O)(=O)N2CCC(c3nc4ccncc4n3CCOC)C2)cc1 (stereo not drawn),610
13,COc1cc(NC(=O)c2nc(C)oc2C)cc(OC)c1,750
14,CCc1nccn1Cc1nc(-c2cccc(OC)c2OC)no1,605
15,COc1ccc(OC)c(CNC(=O)C2CCN(S(=O)(=O)c3cn(C)cn3)CC2)c1,663
16,COCC(=O)Nc1cnc(-c2ccc(Cl)cc2)nc1,857
17,CN(C)C(=O)c1ccc2c(c1)nnn2CCNC(=O)Nc1ccc(Br)cc1F,703
18,COc1ccc(-c2nnc(-c3ccc(C)c(S(=O)(=O)N4CCC(C(=O)O)CC4)c3)o2)cc1OC,785
19,O=C(NC1CCCCC1)C1CCc2sc(C(=O)N3CCOCC3)cc2C1 (stereo not drawn),741
20,CCCN(C)C(=O)C1CCN(c2cnn(CCC)c(=O)c2)CC1,669
21,CCc1noc(NC(C)=O)c1-c1ccc(C)c(S(=O)(=O)NCc2ccc(C)cc2)c1,886
22,COCCC(=O)N1CCC2(CCC2NC(=O)COC)CC1 (stereo not drawn),594

row,Structure (SMILES),RP-LC retention time [s]
1,Cc1cc(C)c(S(=O)(=O)N2CCCC(C(=O)NC3CC3)C2)c(C)c1 (stereo not drawn),842
2,CNC(=O)[C@H]1C[C@H](Oc2ccccc2)CN1C(=O)CCc1nc2ccccc2s1,759
3,Cc1[nH]nc(-c2c(C)sc(C)c2S(=O)(=O)NCCc2ccc(Cl)cc2)c1C,1130
4,COC1C(=O)N(C2CCN(C(=O)c3sc(C)nc3C)CC2)C12CCOCC2 (stereo not drawn),589
5,O=C(Cn1cnc2c(-c3ccc(F)cc3)csc2c1=O)Nc1cc(F)ccc1F,967
6,CCC1CCCCN1C(=O)c1cnc2nc(C)ccc2c1Nc1ccc2c(c1)OCO2 (stereo not drawn),623
7,CC(C)NC(=O)c1ccc(OCC2CCN(C(=O)c3ccsc3)CC2)cc1,797
8,Cc1nc2c(nc1C)C(=O)c1ccccc1C2=O,655
9,CCCC(NC(=O)C1CCCN(c2nc3c(s2)c(C)nn3-c2ccc(C)cc2)C1)c1cccs1 (stereo not drawn),1300
10,Cn1cnc(S(=O)(=O)N2CC(n3cc(C(=O)N4CCOCC4)nn3)C2)c1,575
11,Cc1ccc(NC(=O)CN2C(=O)CCc3cc(S(=O)(=O)N4CCCCC4C)ccc32)c(C)c1 (stereo not drawn),945
12,Cc1noc(-c2nn(C)c3c2CN(C(=O)c2ccc(Br)cc2)CC3)n1,774
13,CC1=C(C(=O)NCCCN2CCN(Cc3ccccc3)CC2)C2(CCCCC2)OC1=O,627
14,CCn1nnc2c(SCc3cc(OC)cc(OC)c3)ncnc21,917
15,Cc1ccc(C(=O)Nc2cccn3nc(C(C)C)nc23)cc1,950
16,Cc1cc(C)cc(NC(=O)CSc2cc(N3CCCCC3)ncn2)c1,990
17,Cc1ccc(C)c(NC(=O)C2CCN(S(=O)(=O)c3cc(C(=O)N(C)C)cs3)CC2)c1,790
18,CC1=C(C(=O)Nc2cccc(C(=O)N3CCN(c4ccccn4)CC3)c2)SCCO1,612
19,COC(=O)c1ccccc1NC(=O)CC1CCCCN1S(=O)(=O)c1ccccc1 (stereo not drawn),968
20,C=CCNC(=O)c1c(O)c2cccnc2n(-c2ccc(OC)cc2)c1=O,1020
21,COc1ccc(Cl)cc1NC(=O)N(C)CC1CCOCC1,816
22,COCCn1c(SCc2nc(-c3ccc(OC)cc3)no2)nc2cc3c(cc2c1=O)OCO3,1020

row,Structure (SMILES),RP-LC retention time [s]
1,COc1ccc(-c2noc(C3CC(=O)N(c4cc(Cl)ccc4OC)C3)n2)cc1 (stereo not drawn),950
2,COc1ccc(C(=O)Nc2c(-c3ccccc3)nc3ccccn23)c(OC)c1,664
3,Nc1ncnc(Nc2ccccc2Cl)c1[N+](=O)[O-],777
4,Cc1ccc(C(=O)N2C[C@@H]3C[C@H](NC(=O)c4cccs4)[C@H]2C3)cn1,581
5,O=C(NCc1ccc(S(=O)(=O)N2CCCC2)s1)c1cccc(-c2nnc(-c3ccccc3)o2)c1,948
6,Cc1cc(C)n(C(=O)c2cn(-c3ccc(S(=O)(=O)N4CCCC(C)C4)cn3)cn2)n1 (stereo not drawn),1020
7,COc1ccc(C2C(C(=O)N3CCCC(C)C3)CCC(=O)N2c2cc(OC)c(OC)c(OC)c2)cc1 (stereo not drawn),772
8,OC(CNCc1ccc(-c2ccc(Cl)cc2Cl)o1)c1ccccc1 (stereo not drawn),800
9,CCc1cccc2[nH]c3cc([N+](=O)[O-])ccc3c12,1180
10,Fc1ccc(Cc2nc3nccc(-c4cccs4)n3n2)cc1,915
11,COC(=O)c1c(C)[nH]c(C(=O)N2CCC(CC(=O)NCCC(C)C)CC2)c1C,716
12,COC(=O)c1cc(C2CC2)nc2c1c(=O)n(Cc1ccc(F)cc1)c(=O)n2C,1090
13,CCS(=O)(=O)N1CCc2nc(-c3ccc(F)cc3)ncc2C1,847
14,CC(=O)N1CCc2cc(S(=O)(=O)C(C)CC(=O)N3CCN(c4cccc(Cl)c4)CC3)ccc21 (stereo not drawn),891
15,CCOc1cc(C(=O)N(CC)c2nc(-c3ccccc3)cs2)cc(OCC)c1OCC,663
16,COc1cccc(C2OC(c3cccc(Cn4cccn4)c3)=NN2C(C)=O)c1OC(C)=O (stereo not drawn),832
17,COCC1CN(Cc2cccc3[nH]ccc23)CC12CCNCC2 (stereo not drawn),510
18,COc1ccc(NC(=O)CCc2c(C)nn(-c3cc(N(C)C)ncn3)c2C)cc1OC,697
19,Cc1ccc(CNC(=O)c2ccc3c(c2)nc2n3CCCCC2)o1,619
20,O=C(Cc1cccs1)N1CCc2[nH]nc(-c3ccccc3)c2C1,839
21,CC1=C(C(=O)OCCc2ccccc2)C(c2cccs2)NC(=O)N1 (stereo not drawn),821
22,COc1cc([C@@H]2c3cc4c(cc3[C@H](O)[C@@H](CO)[C@@H]2C(=O)NCc2ccc3c(c2)OCO3)OCO4)cc(OC)c1OC,709

row,Structure (SMILES),RP-LC retention time [s]
1,CC1CCN(c2ncc3c(n2)CCC(C(=O)NCCC2=CCCCC2)C3)CC1 (stereo not drawn),974
2,CCOC(=O)C1CCN(C(=O)c2csc(Nc3ccc(S(C)(=O)=O)cc3)n2)CC1,620
3,O=C(NC1CC1)[C@@H]1C[C@H](Oc2ccccc2)CN1C(=O)C1CCCC1,750
4,O=c1ccc(-c2ccc3c(c2)OCO3)nn1Cc1nc(-c2ccc(C(F)(F)F)cc2)no1,1070
5,CCCC(=O)Nc1ccc2c(c1)CN(C(=O)c1ccc(C#N)cc1)C(C(=O)N(C)C)C2 (stereo not drawn),681
6,COc1ccc(Cl)cc1S(=O)(=O)N1CCC(CN2CCCCC2)CC1,584
7,O=C(C1CCN(S(=O)(=O)c2cccc3nonc23)CC1)N1CCc2ccccc2C1,913
8,CCC(C(=O)N(C)CCc1noc(-c2ccc(C(=O)N3CCCC3)cc2)n1)c1ccccc1 (stereo not drawn),872
9,CCCN(C)S(=O)(=O)c1cc(-c2nnc(C)o2)co1,768
10,CC(C)OCCCNC(=O)c1ccc2nc(Cc3ccccc3)oc2c1,884
11,Nc1ncnc2c1c(-c1cnc3[nH]ccc3c1)nn2C1CCCC1,709
12,CCS(=O)(=O)Nc1ccc(-c2noc(COc3ccc(OC)cc3)n2)cc1,919
13,Cc1cccc(N2CCN(C(=O)Cn3ccc4ccc(N5CCOCC5)nc43)CC2)c1,959
14,O=C(Nc1ccc2c(c1)OCCO2)C1CCN(S(=O)(=O)c2ccc3[nH]c(=O)ccc3c2)CC1,691
15,CC(C)N1CCN(S(=O)(=O)c2cc(-c3nnc(C4CC4)o3)co2)CC1,599
16,Cn1c(NC(=O)c2ccc(S(=O)(=O)N3CCOCC3)cc2)cc(=O)n(C)c1=O,612
17,O=C(NC1CC1)[C@@H]1C[C@H](Oc2ccccc2)CN1C(=O)c1ccc2ncccc2c1,649
18,CCCn1cc2c3c(cccc31)CN(C(=O)Nc1cccc(C)c1)CC2,1070
19,O=C1N=C(N2CCN(Cc3ccc(F)cc3)CC2)S/C1=C\c1cccc(O)c1,585
20,O=C(NCc1ccc(F)cc1Cl)C1CCN(c2cc(Oc3ccccc3)ncn2)CC1,863
21,NC(=O)c1ccsc1NC(=O)c1c(F)cccc1Cl,706
22,CC(C)c1nc(NCc2ccc3c(c2)OCO3)ncc1C(=O)O,844
